Consider 2 compounds from BindingDB's records for patent US11478460 (Chemocentryx, 2022).

The test has as its target T1, C5a anaphylatoxin chemotactic receptor 1 (Homo sapiens, UniProt P21730).
T1 sequence (P21730 whole entry): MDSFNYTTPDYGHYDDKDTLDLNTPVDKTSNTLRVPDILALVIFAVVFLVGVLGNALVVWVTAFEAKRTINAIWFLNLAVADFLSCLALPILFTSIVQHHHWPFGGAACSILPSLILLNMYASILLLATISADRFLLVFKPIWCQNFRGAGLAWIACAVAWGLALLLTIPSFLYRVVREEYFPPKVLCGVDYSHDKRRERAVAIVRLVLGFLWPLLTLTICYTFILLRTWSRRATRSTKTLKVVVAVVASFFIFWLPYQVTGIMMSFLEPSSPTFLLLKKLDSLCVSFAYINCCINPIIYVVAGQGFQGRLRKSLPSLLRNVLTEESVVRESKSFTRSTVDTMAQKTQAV
Nature of the test: chemotaxis assay. On the procedure: Optionally, compounds may be further assayed for their ability to inhibit chemotaxis in cells. Chemotaxis assays are performed using 5 μm pore polycarbonate, polyvinylpyrrolidone-coated filters in 96-well chemotaxis chambers (Neuroprobe; Gaithersburg, Md.) using chemotaxis buffer (Hank's balanced salt solution (HBSS) and 1% FBS). C5aR ligands (i.e., C5a, R&D Systems; Minneapolis, Minn.) are use to evaluate compound mediated inhibition of C5aR mediated migration. Other chemokines (i.e., SDF-1α; R&D Systems; Minneapolis, Minn.) are used as specificity controls. The lower chamber is loaded with 29 μl of chemokine (i.e., 0.03 nM C5a) and varying amounts of compound; the top chamber contains 100,000 U937 or neutrophil cells in 20 μl. The chambers are incubated 1.5 hours at 37° C., and the number of cells in the lower chamber quantified either by direct cell counts in five high powered fields per well or by the CyQuant assay (Molecular Probes), a fluorescent dye method that measures nucleic acid content and microscopic observation.

The IC50 is the concentration needed to halve the response being measured. High values mean weaker potency, low ones greater potency. `Cc1cccc(OCC(C)C)c1-n1nc2c(c1-c1ccc(NC(N)=O)c(F)c1)CN(c1ncc(Cl)cc1F)CC2` [US11478460, Compound 1.250] displayed an IC50 of less than 5 nM.

For `Cc1cccc(OCC(C)C)c1-n1nc2c(c1-c1ccc(NC(N)=O)cc1)CN(c1cccc(C(C)(C)C)n1)CC2` [US11478460, Compound 1.394], the IC50 is less than 5 nM.
